In patent publication US20080132477A1, “Macrocyclic Compounds Useful as Bace Inhibitors” (priority 2005, published 2008):
Like-named read-outs stand apart in the source and are kept apart here.

Experiments:
[1] = rcm bond, DCM, 40.0 °C
[2] = target: T1, Human BACE (Homo sapiens, UniProt P56817); assay: Test 1: Inhibition of Human BACE; assay type: biochemical; settings: test not given; follows Tests 1-4, assumed BACE
T1 construct: Recombinant BACE (extracellular domain, expressed in baculovirus and purified using standard methods); made in house
T1 sequence (P56817 46-457 limits assumed): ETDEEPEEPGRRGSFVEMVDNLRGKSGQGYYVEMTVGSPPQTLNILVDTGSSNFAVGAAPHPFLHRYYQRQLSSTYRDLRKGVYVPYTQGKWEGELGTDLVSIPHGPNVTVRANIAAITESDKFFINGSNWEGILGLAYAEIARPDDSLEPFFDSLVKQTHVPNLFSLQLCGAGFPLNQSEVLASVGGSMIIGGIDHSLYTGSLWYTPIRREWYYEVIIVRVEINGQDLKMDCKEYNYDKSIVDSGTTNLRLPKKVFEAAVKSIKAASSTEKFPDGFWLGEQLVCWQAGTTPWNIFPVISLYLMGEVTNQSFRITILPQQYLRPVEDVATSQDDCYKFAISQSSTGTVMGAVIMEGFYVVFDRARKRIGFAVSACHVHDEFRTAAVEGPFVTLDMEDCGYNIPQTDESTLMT
Description: Test 1: Inhibition of Human BACE
Recombinant BACE (extracellular domain, expressed in baculovirus and purified using standard methods) at 6 nM concentration is incubated with the test compound at various concentrations for 1 hour at room temperature in 100 mM acetate buffer, pH 4.5, containing 0.1% CHAPS. Synthetic peptide substrate Mca-Ser-Glu-Val-Asn-Leu-Asp-Ala-Glu-Phe-Lys(DNP) is added to a final concentration of 3 μM and the increase in fluorescence is recorded at excitation of 325 nm and emission at 400 nm in a microplate spectro-fluorimeter for 20 minutes in 1-minute intervals. IC50 values are calculated from percentage of inhibition of BACE-activity as a function of the test compound concentration.

SMILES: CN(C)C(=O)c1cc2cc(c1)C(=O)N[C@H]([C@H](O)CCl)Cc1cccc(c1)OCC=CCO2
- ring closure, yield of all isomers ([1]; from C=CCOc1cccc(C[C@H](NC(=O)c2cc(OCC=C)cc(C(=O)N(C)C)c2)[C@H](O)CCl)c1, Grubbs II, 18.9 mM, 1.5 h): 70%

SMILES: COc1ccc2cc1CC=CCN(C(C)=O)c1cc(cc(Cl)n1)C(=O)N[C@H]([C@H]1CN(Cc3cccc(C(C)C)c3)C(=O)O1)C2
- ring closure, yield of all isomers ([1]; from C=CCc1cc(C[C@H](NC(=O)c2cc(Cl)nc(N(CC=C)C(C)=O)c2)[C@H]2CN(Cc3cccc(C(C)C)c3)C(=O)O2)ccc1OC, Grubbs II (tricyclohexylphosphine[1,3-bis(2,4,6-trimethylphenyl)-4,5-dihydroimidazol-2-ylidene][benzylidene]ruthenium(IV) dichloride), 3.45 mM, 6.0 h): 77.6%

SMILES: Cc1cc2cc(n1)NCCCCc1cccc(c1)C[C@@H]([C@H](O)CNCc1cccc(C(C)C)c1)NC2=O [Example 11, (S)-4-[(R)-1-Hydroxy-2-(3-isopropyl-benzylamino)-ethyl]-18-methyl-3,15,17-triaza-tricyclo[14.3.1.1*6,10*]henicosa-1(19),6,8,10(21),16(20),17-hexaen-2-one]
- IC50 [2]: 40 nM
